Assay results from patent US20040229777A1, “Crystalline phases of a potent HCV inhibitor” (Boehringer Ingelheim International GmbH, priority 2003, published 2004).

Tests used:
[1] = Moisture adsorption/desorption isotherm (VTI SGA-100 moisture balance); type: physicochemical; settings: 25° C.; adsorption 5 to 95% RH, desorption 95 to 5% RH; samples dried at 50° C. prior to analysis
Text: It is clear from FIG. 3 that the moisture content of Type A varies depending on the relative humidity of its environment, up to a maximum water sorption level of about 3.7% by weight. […] It is clear from FIG. 7 that the moisture content of Type B varies depending on the relative humidity of its environment, up to a maximum water sorption level of about 4.5% by weight. Moisture adsorption/desorption data were collected on a VTI SGA-100 moisture balance system, available from VTI Corporation of Hialeah, Fla. For adsorption isotherms, an adsorption range of 5 to 95% relative humidity and a desorption range of 95 to 5% relative humidity in 5% relative humidity increments were used for analysis. The samples were dried at 50° C. prior to analysis. The analyses were conducted at 25° C. Equilibrium criteria used for the analysis were less than 0.001 percent change in 5 minutes with a maximum equilibration time of 1200 minutes if the weight criterion was not met.

[2] = XRPD analysis of the crystal phase under varied relative humidity and elevated temperature; type: physicochemical
Text: This behavior is typical of channel hydrates, whereby water resides within the channels in the crystal lattice and can readily move in and out of the structure. Type A is therefore believed to be a type of channel hydrate. Type B is also a variable hydrate crystalline phase of Compound (1), i.e., the number of water molecules associated with each molecule of Compound (1) may vary. […] For this reason, it is preferable to maintain Type B at a modest RH level of about 20% to 40%. X-ray powder diffraction analyses were conducted on a Bruker AXS X-Ray Powder Diffractometer Model D8 Advance, available from Bruker AXS, Inc. of Madison, Wis., using CuKα radiation. The instrument is equipped with a long fine focus x-ray tube. The tube power was set to 40 kV and 30 mA. The instrument was operated in parallel beam mode with a Gobel Mirror, using a 0.6 mm exit slit, a 0.40 soller slit, a LiF flat crystal diffracted beam monochromator and a NaI scintillation detector. A detector scan was run using a tube angle of 1° 2θ. Step scans were run from 2 to 35° 2θ, at 0.050 per step, 4 sec per step. A reference quartz standard was used to check instrument alignment. Samples were prepared for analysis by filing a zero background quartz holder.

Compound: COc1ccc2c(O[C@@H]3C[C@H]4C(=O)N[C@]5(C(=O)O)C[C@H]5/C=C\CCCCC[C@H](NC(=O)OC5CCCC5)C(=O)N4C3)cc(-c3csc(NC(C)C)n3)nc2c1 [Type A]
- maximum water sorption level [1]: about 3.7 % by weight
- crystal structure behaviour under varied humidity and temperature ([2]; dry nitrogen up to ˜85% RH and elevated temperature (up to 160° C.)): crystal lattice expands at higher RH levels while maintaining its overall structure

Compound: COc1ccc2c(O[C@@H]3C[C@H]4C(=O)N[C@]5(C(=O)O)C[C@H]5/C=C\CCCCC[C@H](NC(=O)OC5CCCC5)C(=O)N4C3)cc(-c3csc(NC(C)C)n3)nc2c1 [Type B]
- maximum water sorption level [1]: about 4.5 % by weight
- crystal structure behaviour under varied humidity and temperature ([2]; low relative humidity (e.g., dry nitrogen) and/or elevated temperature (˜90° C.)): readily loses water resulting in a partial collapse of its crystal structure
